Measured values from patent US12391660B2, “Heteroaromatic acetamide derivative, and preparation and use thereof” (Hangzhou Westan Pharmaceutical Technology Co., Ltd, priority 2019, dated 2025).

Experiments:
human TRPA1 = human TRPA1 (Homo sapiens (Human), UniProt O75762); experiment: Inhibitory activity on human TRPA1 by conventional patch clamp assay; assay type: cell-based; details: for inhibition at 5 µM: read-out: TRPA1 % Inhibition rate (5 μM); for IC50: HEK293 human TRPA1, 100 μM cinnamaldehyde
From the text: 2. Inhibitory Activity on Human TRPA1 by Conventional Patch Clamp Assay
In order to compare the influences of different measuring methods on the inhibitory activity of compounds, a conventional patch clamp method was used to further measure the inhibitory activity of compounds 1, 11, 31, 50, and 78 on TRPA1. The principle and procedures of the conventional patch clamp assay could be found in the literature report of Chen et al [Chen et al. Pain 2011, 152(5):1165-72].
Evaluation of TRPA1 inhibitory activity of compounds was conducted using the HEK293 recombinant cell strain (Creative Biogene, NY) stably expressing human TRPA1. Cells were cultured in a DMEM/F12 (3:1, Thermo Fisher Scientific) medium (containing 5% calf serum, 2 mM glutamine and 20 mM HEPES) in an incubator at 37° C. and air humidity containing 5% CO2.
During the experiment, the adherent cells were placed in a recording room under the inverted microscope. All experiments were performed at room temperature. Each cell itself was used as a control thereof.
Test compounds at a final concentration were all prepared on the testing day and then dissolved in the extracellular fluid. The extracellular fluid was (mM): NaCl, 137; KCl, 4; CaCl2, 1.8; MgCl2, 1; HEPES, 10; glucose 10; pH 7.4 (NaOH titration). All the solutions of the test compounds and control compounds contained 0.3% DMSO.
The compounds were all perfused with a perfusion system by virtue of their own gravity. At least two cells were tested for each concentration of the compound. After the current became stable, the variation in magnitude of the current before and after the compound was used to calculate the blocking effect of the compound. 100 μM cinnamaldehyde was used as the positive control.
The cells were transferred to the perfusion tank and perfused with extracellular fluid. The intracellular fluid was: 130 mM K-aspartate; 5 mM MgCl2; 5 mM EGTA; 10 mM
HEPES; pH 7.2 (KOH titration). The intracellular fluid was stored in a small amount in a −80 degree refrigerator in batches, and thawed on the day of the experiment. The electrode was pulled with PC-10 (Narishige, Japan). Whole-cell patch clamp recording was adopted and noise was filtered at one-fifth of the sampling frequency.
The cells were clamped at 20 mV, and then depolarized to 80 mV with a square wave of 500 milliseconds to obtain the TRPA1 current (see FIG. 1).
This procedure was repeated every 3 seconds. Cells were patched in a normal extracellular fluid, current A was obtained via voltage procedure testing, and then perfusion was conducted with an extracellular fluid added with 100 μM cinnamaldehyde to activate TRPA1 current to obtain current B. After the current stabilized, elution was conducted with normal extracellular fluid and perfusion was conducted with an extracellular fluid added with 100 μM cinnamaldehyde and a compound at various concentrations to obtain current C. Finally, blocking rate of the compound was obtained according to […], see FIG. 2.
Data collection and analysis was conducted using pCLAMP 10 (Molecular Devices, Union City, CA). Current stabilization meant that the variation in the current with time was within a limited range. The magnitude of the current after stabilization was used to reflect the effect of the compound in this process.

asthmatic mice = experiment: Ovalbumin-induced asthma mouse model (BALF leukocyte counts, lung inflammation); assay type: in vivo, BABL/c mice; details: for percentage of eosinophils in BALF / percentage of macrophages in BALF / percentage of neutrophils in BALF / total number of leukocytes in BALF: intraperitoneal injection; for percentage of eosinophils in BALF / percentage of macrophages in BALF / percentage of neutrophils in BALF / total number of leukocytes in BALF / eosinophils in BALF: vs model control
From the text: 4. Effects of Compounds on Ovalbumin-Induced Asthma in Mouse and Rat Models
SPF-grade SD male rats (purchased from Zhejiang Academy of Medical Sciences, license number SCXK (Zhejiang) 2019-0002) with a body weight of 160-180 g; and SPF-grade female BABL/c mice (purchased from Zhejiang Weitong Lihua Experimental Animals Technology Co., Ltd., license number SCXK (Zhejiang) 2019-0001) with a body weight of 16-18 g were used. The above animals were raised by the Experimental Animal Center of Zhejiang Academy of Traditional Chinese Medicine.
Formulation of compound solution: compound was vortexed in a solvent system, dissolved by ultrasound, and prepared into a solution at a corresponding concentration, which was prepared just before use (the solvent system was composed of 5% Solutol HS 15, 5% DMSO and 90% physiological saline).
BABL/c mice or SD rats were randomly divided into: normal control group, model control group, dexamethasone group (0.72 mg/kg), and the respective test compound groups (one group for each dose), 10 mice in each group; 6 rats in each group.
Sensitization of mice: on the mornings of Day 0, Day 7, and Day 14, mice in the model control group and the respective drug administration groups were intraperitoneally injected with 0.2 ml of 10% OVA sensitizing solution (Yuanye Bio), and the normal control group was intraperitoneally injected with an equal volume of normal saline. In the afternoons of Day 7 and Day 14, mice in the model control group and the respective drug administration groups were intraperitoneally injected with 0.2 ml of 10% OVA (Sigma), and the normal control group was intraperitoneally injected with an equal volume of normal saline.
Mice: from Day 21, the normal control group and the model control group were not treated; the dexamethasone group and the respective test compound groups were intraperitoneally injected, 20 minutes before each challenge, with the corresponding drugs, injection volume: 0.1 ml/10 g, administered for 7 consecutive days; mice in the test compound-oral group were given the corresponding drugs by intragastric administration 30 minutes before the challenge; the test compound-atomization group or the dexamethasone-atomization group was given the corresponding drugs at different concentrations before challenge, 8 ml for each group, atomization for 30 minutes; the normal control group and the model control group were given no treatment. Administration was conducted for 7 consecutive days.
Mice: from Day 21, the mice in the model control group and the respective administration groups were placed in airtight containers in turn, and the challenging solution was atomized with an ultrasonic nebulizer (approximately 6-8 ml each time), twice a day, OVA challenging solution from Yuanye Shanghai was atomized in the morning, and OVA challenging solution from Sigma was atomized in the afternoon. Mice were challenged for 30 minutes per atomization, for 7 consecutive days. The normal control group was not treated. Mice in the model control group developing cyanosis of lips, accelerated breathing, unsteadiness during standing, nodding breathing, abdominal muscle cramps, etc. was deemed as a sign of success of the animal model.
24 hours after completion of the last challenge, the trachea of the mouse was exposed in front of the neck, a horizontal incision was made in the trachea with an ophthalmic scissor, and a 5 ml syringe-modified tracheal intubation needle was inserted, the left main bronchus was ligated, and the right main bronchus was intubated and tightened with surgical suture. Bronchoalveolar lavage was conducted 3 times with 0.3 ml normal saline, pumpback twice each time. The BALF was combined and collected in a 1.5 ml test tube, which was placed on ice or in a refrigerator at 4 degrees.
50 μl of the above BALF was taken, and 100 μl white blood cell counting diluent (2% iced acetic acid solution) was added thereto and mixed evenly therewith. […]

human TRPA1, sequence (O75762 whole entry): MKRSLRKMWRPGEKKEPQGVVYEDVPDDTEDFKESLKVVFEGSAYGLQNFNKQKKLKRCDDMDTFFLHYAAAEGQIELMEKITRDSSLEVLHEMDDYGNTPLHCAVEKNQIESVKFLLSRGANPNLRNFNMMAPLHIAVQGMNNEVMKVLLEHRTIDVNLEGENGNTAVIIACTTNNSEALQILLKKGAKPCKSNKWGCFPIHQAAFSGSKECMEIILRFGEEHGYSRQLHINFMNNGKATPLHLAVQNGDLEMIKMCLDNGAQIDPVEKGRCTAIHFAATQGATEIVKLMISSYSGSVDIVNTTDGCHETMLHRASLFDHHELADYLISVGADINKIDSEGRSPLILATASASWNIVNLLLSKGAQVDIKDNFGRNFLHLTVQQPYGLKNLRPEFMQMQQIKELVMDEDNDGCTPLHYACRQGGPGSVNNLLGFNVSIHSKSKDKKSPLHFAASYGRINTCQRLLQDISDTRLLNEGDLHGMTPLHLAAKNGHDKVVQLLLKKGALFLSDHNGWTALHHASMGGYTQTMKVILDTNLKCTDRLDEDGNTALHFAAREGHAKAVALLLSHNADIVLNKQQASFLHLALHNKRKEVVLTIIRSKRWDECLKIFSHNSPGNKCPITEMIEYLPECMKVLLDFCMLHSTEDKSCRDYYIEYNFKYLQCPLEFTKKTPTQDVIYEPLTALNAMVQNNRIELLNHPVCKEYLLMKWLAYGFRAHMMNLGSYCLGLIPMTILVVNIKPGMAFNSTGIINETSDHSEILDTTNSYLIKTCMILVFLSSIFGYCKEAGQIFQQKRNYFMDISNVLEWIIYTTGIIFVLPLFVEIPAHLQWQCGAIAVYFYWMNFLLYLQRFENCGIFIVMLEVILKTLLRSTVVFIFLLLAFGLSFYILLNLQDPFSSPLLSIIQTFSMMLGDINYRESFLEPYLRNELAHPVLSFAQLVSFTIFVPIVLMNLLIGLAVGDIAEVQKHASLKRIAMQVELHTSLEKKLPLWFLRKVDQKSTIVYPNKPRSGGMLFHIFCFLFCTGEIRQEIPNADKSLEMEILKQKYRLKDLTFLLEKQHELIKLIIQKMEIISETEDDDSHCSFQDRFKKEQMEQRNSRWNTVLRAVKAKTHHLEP

N#Cc1ccc(NC2(C(=O)N3CCN(c4ccc(C(F)(F)F)cc4)CC3)CCCC2)cc1 [Compound 1, 4-((1-(4-(4-(trifluoromethyl)phenyl)piperazine-1-carbonyl)cyclopentyl)amino)benzonitrile]
inhibition at 5 µM (human TRPA1): 99% | IC50 (human TRPA1): 0.056 µM | percentage of eosinophils in BALF (asthmatic mice; P<0.01): decreased | percentage of macrophages in BALF (asthmatic mice; P<0.01): increased | percentage of neutrophils in BALF (asthmatic mice; P<0.01): decreased | total number of leukocytes in BALF (asthmatic mice; P<0.01): decreased | lung tissue inflammation area (asthmatic mice; oral administration, P<0.05): significantly reduced | eosinophils in BALF (asthmatic mice; oral administration, P<0.01): significantly reduced | airway inflammation score (asthmatic mice; spray inhalation, P>0.05): decreasing trend, but not reaching a statistical significance | lung tissue inflammation area (asthmatic mice; spray inhalation, respective dose groups, P<0.01, 0.05): reduce the lung tissue inflammation area of asthmatic mice in a dose-dependent manner | eosinophils in BALF (asthmatic mice; spray inhalation, respective dose groups, P<0.05, 0.01): dose-dependent decrease

CC(C)(C)C1CCN(C(=O)C2(Nc3ccc(C#N)cc3)CCCC2)CC1 [Compound 31, 4-((1-(4-(tert-butyl)piperidine-1-carbonyl)cyclopentyl)amino)benzonitrile]
inhibition at 5 µM (human TRPA1): 117% | IC50 (human TRPA1): 0.098 µM | percentage of eosinophils in BALF (asthmatic mice; P<0.01): decreased | percentage of macrophages in BALF (asthmatic mice; P<0.01): increased | percentage of neutrophils in BALF (asthmatic mice; P<0.01): decreased | total number of leukocytes in BALF (asthmatic mice; P<0.01): decreased
